US20050154232A1, “Nitrosodiphenylamine derivatives and their pharmaceutical use against oxidative stress pathologies” (priority 2002, published 2005)

Assays:
Human LDLs = assay: Oxidation of human LDL by cupric ions (fluorescence), antioxidant effect; assay type: biochemical
Protocol: Human LDLs placed in aqueous solution in the presence of cupric ions, become spontaneously oxidised on their protein component, apolipoprotein-B. This oxidation makes the particle fluorescent, which is exploited to measure a pharmacological effect.
The reactions and measurements are carried out in black 96-well plates. 10 μl of a solution of the test product dissolved in dimethyl sulfoxide are first mixed with 170 μl of a solution of human LDL at a concentration of 120 μg/ml and 20 μl of 100 μM CuCl2. After stirring, the mixture is incubated for 2 hours at 37° C., and a first fluorescence reading is taken (excitation at 360 nm, reading at 460 nm). The mixture is then incubated for a further 22 hours, to take a second reading under the same conditions. The difference is proportionately smaller the greater the antioxidant power of the test product. Probucol is used as reference product at a concentration of 10 μM.
The concentrations that inhibit 50% (IC50) of the oxidation are prepared from three concentrations of the test product. They are given in Table B below for some of the compounds of the formula I given as examples below.

[1] = Spontaneous release of nitric oxide, titrated as nitrites+nitrates (Griess reagent, nitrate reductase); conditions: nitrites+nitrates released; test product 150 μM, 4 hours at 37° C., pH 7.5 PBS buffer; compounds of formula I
Protocol: A solution of a compound of the formula I of the invention spontaneously releases nitric oxide. The nitrite ions resulting therefrom are titrated by colorimetry by means of a specific reagent (Griess). To take account of any release of nitrate ions in addition to the nitrites, bacterial nitrate reductase is added to the reaction medium to reduce the nitrate ions formed.
The reactions and measurements are carried out in transparent 96-well plates. The test products are dissolved at the time of use, at a concentration of 3 mM in dimethyl sulfoxide. 95 μl of a reagent containing nitrate reductase (0.18 U/ml in 100 mM pH 7.5 PBS buffer, 210 μM β-NADPH, 5 μM FAD) and 5 μl of the solution of the test product (final concentration of 150 μM) are then added to each well. After stirring, the mixtures are incubated for 4 hours at 37° C. The reaction is then stopped by adding 100 μl of Griess' reagent (Sigma G4410). The resulting mixture is stirred for 5 min at room temperature, and the optical density is then read at 540 nm. This value is proportional to the concentration of nitrites+nitrates in the medium. A calibration range is made for each plate, using NaNO2.
The results are expressed as μmol/l (μM) of nitrites+nitrates released in Table A for some of the compounds of the formula I given as examples below.

[2] = oxidation of human lipoproteins, compounds of formula II (Table C)
[3] = human LDL + CuCl2, fluorescence 2 h vs 24 h at 37° C., compounds of formula I (Table B)

SMILES	IC50 (Human LDLs; [2]) [µM]	Nitrites-Nitrates [1] [µM]	melting point [°C]	IC50 (Human LDLs; [3]) [µM]
COc1ccc(Nc2ccc(C(=O)Nc3cccc([N+](=O)[O-])c3)cc2)cc1 [Example 8a]	10	–	–	–
COc1ccc(Nc2cccc(C(=O)Nc3cccnc3)c2)cc1 [Example 4a, 3-[(4-Methoxyphenyl)amino]-N-pyrid-3-ylbenzamide]	9.1	–	–	–
COc1ccc(N(N=O)c2ccc(C(=O)Nc3ccccn3)cc2)cc1 [Example 14b, 4-[1-(4-methoxyphenyl)-2-oxohydrazino]-N-pyrid-2-ylbenzamide]	–	90	–	–
COc1ccc(N(N=O)c2ccc(C(=O)Nc3cccnc3)cc2)cc1 [Example 1b, 4-[1-(4-Methoxyphenyl)-2-oxohydrazino]-N-pyrid-3-ylbenzamide]	–	63	167 to 169	4.6
COc1ccc(Nc2cccc(C(=O)NCc3cccnc3)c2)cc1 [Example 132a]	7.7	–	–	–
COc1ccc(N(N=O)c2cccc(C(=O)Nc3cccnc3)c2)cc1 [Example 4b, 3-[1-(4-Methoxyphenyl)-2-oxohydrazino]-N-pyrid-3-ylbenzamide]	–	70	–	12.7
O=NN(c1ccc(C(=O)Nc2cccnc2)cc1)c1ccc([N+](=O)[O-])cc1 [Example 5b, 4-[1-(4-Nitrophenyl)-2-oxohydrazino]-N-pyrid-3-ylbenzamide]	–	47	–	–
COc1ccc(Nc2ccc(C(=O)Nc3ccccc3)cc2)cc1 [Example 33a]	12.9	–	–	–
COc1ccc(N(N=O)c2cccc(C(=O)NCc3cccnc3)c2)cc1 [Example 132b]	–	82	–	9.3
COc1ccc(N(N=O)c2ccc(C(=O)Nc3ccncc3)cc2)cc1 [Example 15b]	–	82	–	4.8
COc1ccc(N(N=O)c2ccc(C(=O)NCCN3CCN(C)CC3)cc2)cc1 [Example 6b, 4-[1-(4-Methoxyphenyl)-2-oxohydrazino]-N-[2-(4-methylpiperazin-1-yl)-ethyl]benzamide]	–	58	–	–
COc1ccc(Nc2cccc(C(=O)Nc3ccccn3)c2)cc1 [Example 134a]	4.5	–	–	–
COc1ccc(N(N=O)c2cccc(C(=O)Nc3ccncc3)c2)cc1 [Example 135b]	–	75	–	8.6
COc1ccc(Nc2ccc(S(=O)(=O)Nc3cccnc3)cc2)cc1 [Example 136a]	19.8	–	–	–
COc1ccc(Nc2cccc(C(=O)Nc3ccncc3)c2)cc1 [Example 135a]	7.5	–	–	–
